Assays:
MAT2A = target: T1, MAT2A (Homo sapiens, UniProt P31153); assay: MAT2A inhibitory activity, colorimetric phosphate detection (PiColorLock) enzyme assay; format: biochemical; details: Test Condition 1 or 2 (not stated which per compound); absorbance at 630 nm
T1 construct: purchased BPS Bioscience (USA) 71401
How it was run: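 Compound preincubated 30 min at room temperature with enzyme, then reacted 1 h with ATP and Met; phosphate read colorimetrically at 630 nm. Condition 1: top 50 µM, 12 ng/µL enzyme, 100 µM ATP, 80 µM Met. Condition 2: top 1 µM, 4 ng/µL enzyme, 300 µM ATP, 150 µM Met. Tris pH 8.0 buffer; IC50 by 4-parameter fit.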

[1] = tested on: HCT116 (MTAP del) cell line; assay: Cell proliferation inhibition in MTAP-deficient cancer cells, WST-1 assay; format: cell-based; details: Homo sapiens, HCT-116, 120 hours of drug treatment, maximum concentration 10 µM, read-out: HCT116 MTAP^-/- (IC50, cell proliferation inhibited by 50%)
Protocol: (§1) The HCT116 (MTAP del) cell line, which is a colorectal cancer cell line with deletion of MTAP gene, was treated with a compound according to an embodiment of the present application as a MAT2A inhibitor, and after culturing for 120 hours, the change in the number of cells was measured with a WST-1 assay reagent. The WST-1 assay is an assay that measures the number of cells by measuring the generation of a chromogenic substance called formazan from tetrazolium salts by intracellular mitochondrial dehydrogenase. In addition, as a control group, a wild-type colorectal cancer HCT116 (MTAP WT) cell line containing the MTAP gene was used to perform the experiment in the same manner as the experimental group.
(§2) Cell lines and reagents: HCT116 (MTAP WT (catalog number HD PAR-034), MTAP del (catalog number HD R02-033)) cell lines were purchased from Horizon Discovery (USA), and RPMI1640 medium (catalog number 22400-093), FBS (Fetal Bovine serum, catalog number 16000044), and Penicillin/Streptomycin (catalog number 15140-122) were purchased from GIBCO (USA). WST-1 (catalog number EZ-BULK150) was purchased from Dogen (Korea).
(§3) Experimental procedure: HCT116 (MTAP WT, MTAP del) cell lines were dispensed into a 96-well plate at a concentration of 1,000 cells/well in RPMI1640 culture medium containing 10% FBS and 1% Penicillin/Streptomycin, and allowed to attach for 24 hours. When the cells were attached to the plate, the drug was diluted 4-fold from a maximum concentration of 10 µM and treated on the cells. After 120 hours of drug treatment, 20 µL of WST-1 solution was treated for 2 hours, and absorbance at 450 nm was measured using SpectraMax M4 (Molecular Devices). Data analysis was calculated by taking the DMSO control group value as 100%. For the IC50 value, the concentration at which cell proliferation is inhibited by 50% was calculated through interpolation using a 4-parameter fit of the dose-response curve using the GraphPad Prism 8.4.3 program. The cancer cell proliferation inhibitory ability and selectivity in MTAP-deficient cancer cells of the compounds according to an embodiment of the present application are described in Table 3 (+++: 1 to 100 nM, ++: more than 100 to 1,000 nM, +: more than 1 to 10 µM, -: more than 10 µM).

[2] = tested on: HCT116 (MTAP WT) cell line; assay: Cell proliferation inhibition in wild-type control cells, WST-1 assay; format: cell-based; details: Homo sapiens, HCT-116, 120 hours of drug treatment, maximum concentration 10 µM, read-out: HCT116 WT (IC50, cell proliferation inhibited by 50%)
Protocol: as §1, §2, §3

T1 sequence (P31153 whole entry): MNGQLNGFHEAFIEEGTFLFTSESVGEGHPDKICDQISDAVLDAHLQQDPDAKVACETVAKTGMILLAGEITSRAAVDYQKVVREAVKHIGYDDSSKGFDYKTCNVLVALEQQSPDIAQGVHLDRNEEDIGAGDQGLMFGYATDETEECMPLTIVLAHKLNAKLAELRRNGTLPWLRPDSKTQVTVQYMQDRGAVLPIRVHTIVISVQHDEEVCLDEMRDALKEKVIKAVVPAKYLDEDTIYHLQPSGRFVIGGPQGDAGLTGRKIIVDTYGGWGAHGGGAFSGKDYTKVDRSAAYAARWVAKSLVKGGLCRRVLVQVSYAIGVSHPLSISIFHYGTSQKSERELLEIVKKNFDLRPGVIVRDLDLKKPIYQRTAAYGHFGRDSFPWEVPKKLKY

Row | IC50 (MAT2A) [nM] | IC50 [1] [nM] | IC50 [2] [nM] | SMILES
1 | 100 to 1000 | 100 to 1000 | > 10000 | Cc1ccccc1-n1c(=O)c2nccn2c2ccc(C(F)(F)F)nc21 [Example 49, 5-(o-tolyl)-7-(trifluoromethyl)imidazo[1,2-a]pyrido[2,3-e]pyrazin-4(5H)-one]
2 | 100 to 1000 | 1000 to 10000 | > 10000 | Cc1cccc(F)c1-n1c(=O)c2nccn2c2ccc(Cl)cc21 [Example 52, 7-chloro-5-(2-fluoro-6-methylphenyl)imidazo[1,2-a]quinoxalin-4(5H)-one]
3 | 1 to 100 | 1 to 100 | 100 to 1000 | O=c1c2nccn2c2ccc(Cl)cc2n1-c1cccnc1Cl [Example 54, 7-chloro-5-(2-chloropyridin-3-yl)imidazo[1,2-a]quinoxalin-4(5H)-one]
4 | 1 to 100 | 1 to 100 | 1000 to 10000 | Cc1cn2c(n1)c(=O)n(-c1cccnc1C)c1cc(C(F)(F)F)ccc12 [Example 55, 2-methyl-5-(2-methylpyridin-3-yl)-7-(trifluoromethyl)imidazo[1,2-a]quinoxalin-4(5H)-one]
5 | 100 to 1000 | 1 to 100 | 1000 to 10000 | Cc1ncccc1-n1c(=O)c2nccn2c2ccc(C(F)(F)F)cc21 [Example 56, 5-(2-methylpyridin-3-yl)-7-(trifluoromethyl)imidazo[1,2-a]quinoxalin-4(5H)-one]
6 | 100 to 1000 | 1 to 100 | 100 to 1000 | Cc1ncccc1-n1c(=O)c2ncc(Br)n2c2ccc(C(F)(F)F)cc21 [Example 57, 1-bromo-5-(2-methylpyridin-3-yl)-7-(trifluoromethyl)imidazo[1,2-a]quinoxalin-4(5H)-one]
7 | 100 to 1000 | 1 to 100 | 100 to 1000 | Cc1ncccc1-n1c(=O)c2ncc(C)n2c2ccc(C(F)(F)F)cc21 [Example 58, 1-methyl-5-(2-methylpyridin-3-yl)-7-(trifluoromethyl)imidazo[1,2-a]quinoxalin-4(5H)-one]
8 | 100 to 1000 | > 10000 | > 10000 | CC(=O)c1nc2c(=O)n(-c3cccnc3C)c3cc(C(F)(F)F)ccc3n2c1O [Example 60, 2-acetyl-1-hydroxy-5-(2-methylpyridin-3-yl)-7-(trifluoromethyl)imidazo[1,2-a]quinoxalin-4(5H)-one]
9 | 1 to 100 | 1 to 100 | 1000 to 10000 | O=c1c2nccn2c2ccc(C(F)(F)F)cc2n1-c1cccc2c1CCO2 [Example 65, 5-(2,3-dihydrobenzofuran-4-yl)-7-(trifluoromethyl)imidazo[1,2-a]quinoxalin-4(5H)-one]
10 | 1000 to 10000 | > 10000 | > 10000 | Cc1ccccc1-n1c(=O)c2nccn2c2c(F)cc(Cl)cc21 [Example 71, 7-chloro-9-fluoro-5-(o-tolyl)imidazo[1,2-a]quinoxalin-4(5H)-one]
11 | 100 to 1000 | 100 to 1000 | > 10000 | Cc1cc2c(cc1Cl)n(-c1ccccc1C)c(=O)c1nccn12 [Example 73, 7-chloro-8-methyl-5-(o-tolyl)imidazo[1,2-a]quinoxalin-4(5H)-one]
12 | 100 to 1000 | 100 to 1000 | > 10000 | COc1cc2c(cc1Br)n(-c1ccccc1C)c(=O)c1nccn12 [Example 74, 7-bromo-8-methoxy-5-(o-tolyl)imidazo[1,2-a]quinoxalin-4(5H)-one]
13 | 100 to 1000 | 100 to 1000 | > 10000 | COc1cc2c(cc1Br)n(-c1cccnc1C)c(=O)c1nccn12 [Example 75, 7-bromo-8-methoxy-5-(2-methylpyridin-3-yl)imidazo[1,2-a]quinoxalin-4(5H)-one]
14 | 1 to 100 | 1 to 100 | 1000 to 10000 | Cc1ncccc1-n1c(=O)c2nccn2c2cc(F)c(Br)cc21 [Example 77, 7-bromo-8-fluoro-5-(2-methylpyridin-3-yl)imidazo[1,2-a]quinoxalin-4(5H)-one]
15 | 1 to 100 | 1 to 100 | > 10000 | Cc1cc2c(cc1Br)n(-c1cccnc1C)c(=O)c1nccn12 [Example 78, 7-bromo-8-methyl-5-(2-methylpyridin-3-yl)imidazo[1,2-a]quinoxalin-4(5H)-one]
16 | 100 to 1000 | 1 to 100 | > 10000 | Cc1cc2c(cc1Br)n(-c1cccnc1C)c(=O)c1ncc(C)n12 [Example 84, 7-bromo-1,8-dimethyl-5-(2-methylpyridin-3-yl)imidazo[1,2-a]quinoxalin-4(5H)-one]
17 | 100 to 1000 | 1 to 100 | > 10000 | Cc1ncccc1-n1c(=O)c2ncc(C)n2c2c(Br)c(C)c(Br)cc21 [Example 85, 7,9-dibromo-1,8-dimethyl-5-(2-methylpyridin-3-yl)imidazo[1,2-a]quinoxalin-4(5H)-one]
18 | 100 to 1000 | 100 to 1000 | > 10000 | Cc1ncccc1-n1c(=O)c2ncc(C)n2c2cc(Cl)c(Br)cc21 [Example 86, 7-bromo-8-chloro-1-methyl-5-(2-methylpyridin-3-yl)imidazo[1,2-a]quinoxalin-4(5H)-one]
19 | 1 to 100 | 1 to 100 | > 10000 | O=c1c2nccn2c2cc(Cl)c(Br)cc2n1-c1cccnc1C1CC1 [Example 87, 7-bromo-8-chloro-5-(2-cyclopropylpyridin-3-yl)imidazo[1,2-a]quinoxalin-4(5H)-one]
20 | 100 to 1000 | 100 to 1000 | > 10000 | Cc1ncccc1-n1c(=O)c2ncc(Br)n2c2cc(Cl)c(Br)cc21 [Example 88, 1,7-dibromo-8-chloro-5-(2-methylpyridin-3-yl)imidazo[1,2-a]quinoxalin-4(5H)-one]
21 | 100 to 1000 | 100 to 1000 | > 10000 | Cc1ncccc1-n1c(=O)c2ncc(Cl)n2c2cc(Cl)c(Br)cc21 [Example 89, 7-bromo-1,8-dichloro-5-(2-methylpyridin-3-yl)imidazo[1,2-a]quinoxalin-4(5H)-one]
22 | 1 to 100 | 1 to 100 | > 10000 | Cc1cc2c(cc1Br)n(-c1cccnc1Cl)c(=O)c1nccn12 [Example 91, 7-bromo-5-(2-chloropyridin-3-yl)-8-methylimidazo[1,2-a]quinoxalin-4(5H)-one]
23 | 100 to 1000 | > 10000 | > 10000 | Cc1ncccc1-n1c(=O)c2nc(Br)c(C)n2c2cc(Cl)c(Br)cc21 [Example 92, 2,7-dibromo-8-chloro-1-methyl-5-(2-methylpyridin-3-yl)imidazo[1,2-a]quinoxalin-4(5H)-one]
24 | 1 to 100 | 1 to 100 | > 10000 | Cc1ncccc1-n1c(=O)c2ncc(C)n2c2cc(Cl)c(C(F)(F)F)cc21 [Example 99, 8-chloro-1-methyl-5-(2-methylpyridin-3-yl)-7-(trifluoromethyl)imidazo[1,2-a]quinoxalin-4(5H)-one]
25 | 100 to 1000 | 100 to 1000 | > 10000 | Cc1ncccc1-n1c(=O)c2nc(N(C)C)c(C)n2c2cc(Cl)c(C(F)(F)F)cc21 [Example 100, 8-chloro-2-(dimethylamino)-1-methyl-5-(2-methylpyridin-3-yl)-7-(trifluoromethyl)imidazo[1,2-a]quinoxalin-4(5H)-one]

Row | SMILES | IC50 (MAT2A) [nM] | IC50 [1] [nM] | IC50 [2] [nM]
26 | Cc1ncccc1-n1c(=O)c2nccn2c2cc(Cl)c(Br)cc21 [Example 79, 7-bromo-8-chloro-5-(2-methylpyridin-3-yl)imidazo[1,2-a]quinoxalin-4(5H)-one] | 1 to 100 | 1 to 100 | 1000 to 10000
27 | Cc1cc2c(cc1C(F)(F)F)n(-c1cccnc1C)c(=O)c1nccn12 [Example 93, 8-methyl-5-(2-methylpyridin-3-yl)-7-(trifluoromethyl)imidazo[1,2-a]quinoxalin4(5H)-one] | 1 to 100 | 1 to 100 | > 10000
28 | Cc1ncccc1-n1c(=O)c2nccn2c2cc(Cl)c(C(F)(F)F)cc21 [Example 96, 8-chloro-5-(2-methylpyridin-3-yl)-7-(trifluoromethyl)imidazo[1,2-a]quinoxalin4(5H)-one] | 1 to 100 | 1 to 100 | > 10000

Source: patent EP4759814A1, “TRICYCLIC COMPOUND AND USE THEREOF AS MAT2A INHIBITOR” (SK Biopharmaceuticals Co., Ltd., priority 2023, dated 2025)
